Results taken from US5977106A, “3,5-dioxo-(2H,4H)-1,2,4-triazine derivatives” (Pierre Fabre Medicament, priority 1994, dated 1999).
Counter-ions that a name gives are not always drawn. Like-named read-outs stand apart in the source and are kept apart here.

How the values were obtained:
[1] = target: T1, 5-HT1A type serotoninergic receptors (Rattus norvegicus, UniProt P19327); experiment: 5-HT syndrome in rats (FBP, LLR, FPT); format: in vivo; details: ip, male Sprague Dawley rats
T1 construct: carried out in male rats (Sprague Dawley); from tissue; host or cells: living male Sprague Dawley rats (whole animal)
T1 sequence (P19327 1-422): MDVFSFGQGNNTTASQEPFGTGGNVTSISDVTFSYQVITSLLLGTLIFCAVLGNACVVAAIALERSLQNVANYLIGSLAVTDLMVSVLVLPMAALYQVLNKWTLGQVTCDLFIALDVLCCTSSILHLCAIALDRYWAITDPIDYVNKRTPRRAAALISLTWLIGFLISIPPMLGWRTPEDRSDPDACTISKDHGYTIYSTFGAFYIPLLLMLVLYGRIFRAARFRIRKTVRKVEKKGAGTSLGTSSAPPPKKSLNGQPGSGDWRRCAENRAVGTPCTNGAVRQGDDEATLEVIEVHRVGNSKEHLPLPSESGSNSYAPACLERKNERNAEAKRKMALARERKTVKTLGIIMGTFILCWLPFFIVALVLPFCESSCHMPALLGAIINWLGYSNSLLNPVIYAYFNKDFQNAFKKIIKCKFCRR
Protocol: The central activity of the compounds of the invention was evaluated for their capacity to cause the 5-HT syndrome, which is characterized by reciprocal fore-paw treading (FPT), lower-lip retraction (LLR) and flat body posture (FBP).
The experiments for the evaluation of the 5-HT syndrome are carried out in male rats (Sprague Dawley) according to the method described by F.C COLPAERT et al (Drug Dev. Res., 26, 21-48; 1992).

5-HT1A receptor = target: T2, 5-HT1A receptor (Rattus norvegicus, UniProt P19327); experiment: biochemical; format: binding; details: rat cerebral cortex, [^3 H]8-OH-DPAT 0.2 nM, 23° C., 30 minutes, mean of 3 to 5 experiments; for Ki: read-out: pKi (Affinity for the 5-HT1A receptor) (converted)
T2 sequence (P19327 1-422): T1 sequence (P19327 1-422)

[2] = FPT, read-out: ED50 reciprocal fore-paw treading (FPT), 5-HT syndrome
[3] = FBP, read-out: ED50 flat body posture (FBP), 5-HT syndrome
[4] = LLR, read-out: ED50 lower-lip retraction (LLR), 5-HT syndrome

Row | Compound | Ki (5-HT1A receptor) [nM] | other results
1 | O=C1CC2(CCCC2)CC(=O)N1CCCCN1CCN(c2ncccn2)CC1 [Buspirone, reference compound] | – | ED50 [1, 2]: > 40 mg/kg
2 | COc1ccccc1N1CCN(CCCCn2ncc(=O)n(C)c2=O)CC1 [Compound 11] | 0.132 | –
3 | Cc1ccnc(N2CCN(CCCCn3ncc(=O)n(C)c3=O)CC2)n1 [Compound 25] | 0.724 | –
4 | O=c1cnn(CCCCN2CCN(c3cccc(C(F)(F)F)c3)CC2)c(=O)[nH]1 [Compound 1, 2-[4-(4-(3-trifluoromethylphenyl)piperazino)butyl]-3,5-dioxo-(2H,4H)-1,2,4-triazine hydrochloride] | 0.55 | –
5 | Cn1c(=O)cnn(CCCCN2CCN(c3cccc(Cl)c3)CC2)c1=O [Compound 4, 4-methyl-2-(4-(4-(3-chlorophenyl)piperazino)butyl)-3,5-dioxo-(2H,4H)-1,2,4-triazine] | 0.269 | –
6 | Cl.Cn1c(=O)cnn(CCCCN2CCN(c3cccc(C(F)(F)F)c3)CC2)c1=O [Compound 3, 4-methyl-2-(4-(4-(3-trifluoromethylphenyl)piperazino)butyl)-3,5-dioxo-(2H,4H)-1,2,4-triazine hydrochloride] | 0.24 | ED50 [1, 3]: 0.31 mg/kg; ED50 [1, 2]: 0.31 mg/kg; ED50 [1, 4]: 0.08 mg/kg
7 | 4-methyl-2-(4-(4-(4,6-dimethyl-2-pyrimidinyl)piperazino)butyl)-3,5-dioxo-(2H,4H)-1,2,4-triazine [Compound 27] | – | pKi (Affinity for the 5-HT1A receptor) (5-HT1A receptor): 9.23
8 | Cc1nn(CCCCN2CCN(c3cccc(C(F)(F)F)c3)CC2)c(=O)n(C)c1=O [Compound 13, 4,6-dimethyl-2-(4-(4-(3-trifluoromethylphenyl)piperazino)butyl-3,5-dioxo-(2H,4H)-1,2,4-triazine hydrochloride] | 2.63 | –
9 | Cn1c(=O)cnn(CCCCN2CCN(c3nccc(Cl)n3)CC2)c1=O [Compound 24] | 0.794 | –
10 | Cn1c(=O)cnn(CCCCNCC2COc3ccccc3O2)c1=O (stereo not drawn) [Compound 14, 4-methyl-2-(4-(1,4-benzodioxane-2-ylmethylamino)butyl)-3,5-dioxo-(2H,4H)-1,2,4-triazine] | 0.269 | –
11 | Cn1c(=O)cnn(CCCCN2CCN(c3ncccn3)CC2)c1=O [Compound 9, 4-methyl-2-(4-(4-pyrimidinyl-2)piperazino)butyl-3,5-dioxo-(2H,4H)-1,2,4-triazine] | 4.57 | ED50 [1, 3]: 0.08 mg/kg; ED50 [1, 2]: 0.31 mg/kg; ED50 [1, 4]: 0.08 mg/kg
12 | Cc1cc(C)nc(N2CCN(CCCCn3ncc(=O)n(C)c3=O)CC2)n1 [Compound 26, 4-methyl-2-(4-(4-(4,6-dimethyl-2-pyrimidinyl)piperazino)butyl)-3,5-dioxo-(2H,4H)-1,2,4-triazine] | 0.646 | –
13 | COc1ccc2cccc(N3CCN(CCCCn4ncc(=O)n(C)c4=O)CC3)c2c1 [Compound 10, 4-methyl-2-(4-(4-(7-methoxynaphthalene-1-yl)piperazino)butyl-3,5-dioxo-(2H,4H)-1,2,4-triazine fumarate] | 0.0324 | ED50 [1, 3]: 0.02 mg/kg; ED50 [1, 2]: 0.02 mg/kg; ED50 [1, 4]: 0.005 mg/kg
14 | 4-methyl-2-(4-(2,3-dihydro-1,4-dioxino-[2,3-b]-pyridin-2-ylmethylamino)butyl)-3,5-dioxo-(2H,4H)-1,2,4-triazine fumarate [Compound 16] | – | pKi (Affinity for the 5-HT1A receptor) (5-HT1A receptor): 9.36
15 | Cn1c(=O)cnn(CCCCN2CCN(c3cccc(Cl)c3Cl)CC2)c1=O [Compound 22, 4-methyl-2-(4-(4-(2,3-dichloro-phenyl)piperazino)butyl)-3,5-dioxo-(2H,4H)-1,2,4-triazine] | 0.316 | –
16 | Cn1c(=O)cnn(CCCCN2CCN(c3ncccn3)CC2)c1=O [Compound 30, 4-methyl-2-(4-(4-(2-pyrimidinyl)piperazino)butyl)-3,5-dioxo-(2H,4H)-1,2,4-triazine fumarate] | 3.31 | –
17 | Cn1c(=O)cnn(CCCCN2CCN(c3ccc(Cl)c(Cl)c3)CC2)c1=O [Compound 21, 4-methyl-2-(4-(4-(3,4-dichloro-phenyl)piperazino)butyl)-3,5-dioxo-(2H,4H)-1,2,4-triazine] | 2.63 | –
18 | Cn1c(=O)cnn(CCCCN2CCN(c3cc(Cl)cc(Cl)c3)CC2)c1=O [Compound 23, 4-methyl-2-(4-(4-(3,5-dichloro-phenyl)piperazino)butyl)-3,5-dioxo-(2H,4H)-1,2,4-triazine] | 0.912 | –
19 | CN(CCCCn1ncc(=O)n(C)c1=O)CC1COc2ccccc2O1 (stereo not drawn) [Compound 15, 4-methyl-2-(4-(N-methyl, 1,4-benzodioxan-2-ylmethylamino)butyl)-3,5-dioxo-(2H,4H)-1,2,4-triazine fumarate] | 2.82 | –
20 | COc1ccnc(N2CCN(CCCCn3ncc(=O)n(C)c3=O)CC2)n1 [Compound 28, 4-methyl-2-(4-(4-(4-methoxy-2-pyrimidinyl)piperazino)butyl)-3,5-dioxo-(2H,4H)-1,2,4-triazine] | 0.851 | –
21 | Cc1nn(CCCCN2CCN(c3cccc(C(F)(F)F)c3)CC2)c(=O)[nH]c1=O [Compound 12, 6-methyl-2-(4-(4-(3-trifluoromethylphenyl)piperazino)butyl)-3,5-dioxo-(2H,4H)-1,2,4-triazine] | 6.46 | –
